Values of other authors, collected in patent US6511993B1, “Metalloprotease inhibitors” (priority 1999, dated 2003).

Test system: human ovarian carcinoma xenografts
Settings: mice carrying human ovarian carcinoma xenografts; Cancer Res., 1993, 53, 2087; cited from earlier work

CNC(=O)[C@H](Cc1ccccc1)NC(=O)[C@H](CC(C)C)[C@H](CSc1cccs1)C(=O)NO [BB-94]
survival: prolong the survival | tumour burden: decrease the tumour burden
